This passage reports IC50 results from US20230139171A1 (SITA Information Networking Computing UK Limited, priority 2019, published 2023).

The structures appear in SMILES notation.

What all share (type): cell-based
Assay [1] addresses T1, human TLR9 (Homo sapiens, UniProt Q9NR96).
T1 construct: host or cells: HEK-Blue cells
T1 sequence (Q9NR96 26-1032): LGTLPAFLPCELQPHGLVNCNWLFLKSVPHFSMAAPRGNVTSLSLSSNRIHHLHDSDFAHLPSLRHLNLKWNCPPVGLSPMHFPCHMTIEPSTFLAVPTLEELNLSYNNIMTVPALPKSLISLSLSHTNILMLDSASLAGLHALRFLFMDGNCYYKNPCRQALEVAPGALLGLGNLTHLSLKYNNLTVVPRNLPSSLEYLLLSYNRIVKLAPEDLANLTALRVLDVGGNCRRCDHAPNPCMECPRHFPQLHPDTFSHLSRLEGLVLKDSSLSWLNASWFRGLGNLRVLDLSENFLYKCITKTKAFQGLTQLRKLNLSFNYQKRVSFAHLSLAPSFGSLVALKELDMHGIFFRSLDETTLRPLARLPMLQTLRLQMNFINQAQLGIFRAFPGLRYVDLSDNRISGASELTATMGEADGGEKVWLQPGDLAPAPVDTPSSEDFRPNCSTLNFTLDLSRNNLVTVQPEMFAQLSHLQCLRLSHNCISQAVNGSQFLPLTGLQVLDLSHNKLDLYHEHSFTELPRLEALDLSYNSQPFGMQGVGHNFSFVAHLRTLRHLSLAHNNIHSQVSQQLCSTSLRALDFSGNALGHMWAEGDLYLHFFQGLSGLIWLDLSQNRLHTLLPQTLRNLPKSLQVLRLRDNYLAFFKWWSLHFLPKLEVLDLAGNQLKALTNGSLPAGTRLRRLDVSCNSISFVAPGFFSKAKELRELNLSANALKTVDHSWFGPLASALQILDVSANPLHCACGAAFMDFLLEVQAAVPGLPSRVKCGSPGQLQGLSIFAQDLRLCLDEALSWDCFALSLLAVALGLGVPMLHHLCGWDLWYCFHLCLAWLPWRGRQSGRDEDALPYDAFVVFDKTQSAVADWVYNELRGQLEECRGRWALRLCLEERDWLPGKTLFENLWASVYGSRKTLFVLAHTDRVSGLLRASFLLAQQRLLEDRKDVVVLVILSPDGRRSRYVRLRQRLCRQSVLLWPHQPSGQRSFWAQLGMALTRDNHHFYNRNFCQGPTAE
The assay is described as follows: TLR9 inhibition reporter assay (HEK-Blue cells, SEAP reporter, ODN2006 stimulation). The conditions noted are these: HEK-Blue cells overexpressing human TLR9, SEAP reporter, ODN2006 5 nM. A digest of the protocol: (§1)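 Dose–response from 0.05 nM to 50 μM was run in HEK-Blue human TLR7, TLR8 and TLR9 reporter cells. After 30 min at room temperature with compound, ligand was added (TLR7 gardiquimod 7.5 μM; TLR8 R848 15.9 μM; TLR9 ODN2006 5 nM) and SEAP measured next day, at 22 h.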

For assay [2], the target named is T2, human TLR7 (Homo sapiens, UniProt Q9NYK1).
T2 construct: host or cells: HEK-Blue cells
T2 sequence (Q9NYK1 27-1049): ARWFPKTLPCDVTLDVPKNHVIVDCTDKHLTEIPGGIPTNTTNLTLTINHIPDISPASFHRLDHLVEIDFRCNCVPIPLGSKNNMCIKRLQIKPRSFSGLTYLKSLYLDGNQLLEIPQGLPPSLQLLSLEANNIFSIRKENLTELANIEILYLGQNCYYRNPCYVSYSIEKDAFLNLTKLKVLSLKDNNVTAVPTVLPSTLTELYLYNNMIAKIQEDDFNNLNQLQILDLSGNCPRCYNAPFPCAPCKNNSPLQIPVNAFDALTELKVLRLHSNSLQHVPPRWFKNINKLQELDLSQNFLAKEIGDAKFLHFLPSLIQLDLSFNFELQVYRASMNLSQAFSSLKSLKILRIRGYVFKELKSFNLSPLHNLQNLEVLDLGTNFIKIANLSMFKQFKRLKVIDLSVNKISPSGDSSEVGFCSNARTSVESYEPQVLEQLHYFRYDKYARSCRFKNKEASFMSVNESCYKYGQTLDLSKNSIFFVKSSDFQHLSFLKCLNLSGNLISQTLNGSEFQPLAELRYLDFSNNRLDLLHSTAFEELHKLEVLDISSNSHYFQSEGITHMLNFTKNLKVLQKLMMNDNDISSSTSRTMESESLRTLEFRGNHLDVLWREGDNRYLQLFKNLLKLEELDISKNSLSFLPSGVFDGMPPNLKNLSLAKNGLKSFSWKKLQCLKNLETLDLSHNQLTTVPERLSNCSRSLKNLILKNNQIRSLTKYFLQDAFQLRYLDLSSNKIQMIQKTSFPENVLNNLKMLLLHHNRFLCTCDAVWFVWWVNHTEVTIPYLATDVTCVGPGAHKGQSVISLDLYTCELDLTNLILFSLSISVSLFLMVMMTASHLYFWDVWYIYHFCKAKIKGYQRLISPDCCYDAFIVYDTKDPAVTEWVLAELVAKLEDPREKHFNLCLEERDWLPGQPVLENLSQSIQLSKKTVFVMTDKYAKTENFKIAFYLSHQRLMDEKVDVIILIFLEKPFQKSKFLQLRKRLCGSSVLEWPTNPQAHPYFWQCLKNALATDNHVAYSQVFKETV
The assay is described as follows: TLR7 inhibition reporter assay (HEK-Blue cells, SEAP reporter, gardiquimod stimulation). The conditions noted are these: HEK-Blue cells overexpressing human TLR7, SEAP reporter, gardiquimod 7.5 μM; read-out: TLR7 IC50. A digest of the protocol: as §1

In assay [3] the target is T3, human TLR8 (Homo sapiens, UniProt Q9NR97).
T3 construct: host or cells: HEK-Blue cells
T3 sequence (Q9NR97 27-1041): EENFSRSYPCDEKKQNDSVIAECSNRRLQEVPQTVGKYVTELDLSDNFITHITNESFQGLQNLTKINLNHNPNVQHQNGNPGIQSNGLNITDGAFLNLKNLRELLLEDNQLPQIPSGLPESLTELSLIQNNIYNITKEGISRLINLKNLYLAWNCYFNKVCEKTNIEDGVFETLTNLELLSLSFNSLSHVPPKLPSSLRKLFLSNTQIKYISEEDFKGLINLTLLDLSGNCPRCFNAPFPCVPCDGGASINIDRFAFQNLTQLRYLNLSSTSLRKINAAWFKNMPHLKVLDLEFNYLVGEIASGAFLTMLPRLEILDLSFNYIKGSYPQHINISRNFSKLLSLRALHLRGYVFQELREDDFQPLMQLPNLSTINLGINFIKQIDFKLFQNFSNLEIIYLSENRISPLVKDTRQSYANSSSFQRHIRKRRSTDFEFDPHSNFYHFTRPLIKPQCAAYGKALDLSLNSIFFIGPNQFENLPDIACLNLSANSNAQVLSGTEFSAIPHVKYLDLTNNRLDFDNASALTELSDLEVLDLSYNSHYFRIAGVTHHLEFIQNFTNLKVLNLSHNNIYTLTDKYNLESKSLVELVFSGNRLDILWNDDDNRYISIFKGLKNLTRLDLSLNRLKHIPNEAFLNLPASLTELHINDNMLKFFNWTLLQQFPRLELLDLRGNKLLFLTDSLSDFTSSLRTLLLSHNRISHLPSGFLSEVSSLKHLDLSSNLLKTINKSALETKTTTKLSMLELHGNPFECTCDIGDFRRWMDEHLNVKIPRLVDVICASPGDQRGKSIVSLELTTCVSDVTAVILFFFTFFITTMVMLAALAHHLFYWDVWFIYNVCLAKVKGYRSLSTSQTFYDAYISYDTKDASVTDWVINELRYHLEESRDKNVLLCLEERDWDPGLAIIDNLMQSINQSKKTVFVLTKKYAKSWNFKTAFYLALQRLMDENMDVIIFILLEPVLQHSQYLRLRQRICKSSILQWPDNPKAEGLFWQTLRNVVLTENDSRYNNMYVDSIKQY
The experiment in a line: TLR8 inhibition reporter assay (HEK-Blue cells, SEAP reporter, R848 stimulation). The conditions noted are these: HEK-Blue cells overexpressing human TLR8, SEAP reporter, R848 15.9 μM; read-out: TLR8 IC50. In short, it runs like this:
as §1

On to `CC(=O)N1CCN(C(=O)c2nc3c(C(C)C)c(-c4cn5ncnc5c(C)c4C)[nH]c3s2)CC1` [Example 375, 1-(4-(5-(7,8-dimethyl-[1,2,4]triazolo[1,5-a]pyridin-6-yl)-6-isopropyl-4H-pyrrolo[3,2-d]thiazole-2-carbonyl)piperazin-1-yl)ethan-1-one], for which the IC50 in assay [1] was 35600 nM; in assay [2], 19.9 nM; in assay [3], 8.4 nM.
The like results for `Cc1c(-c2[nH]c3sc(C(=O)N4CCC(N(C)C)CC4)nc3c2C(C)C)cn2ncnc2c1C` [Example 376, (5-(7,8-dimethyl-[1,2,4]triazolo[1,5-a]pyridin-6-yl)-6-isopropyl-4H-pyrrolo[3,2-d]thiazol-2-yl)(4-(dimethylamino)piperidin-1-yl)methanone] were, in that order, 6300 nM, 4.54 nM and 2.8 nM.
The like results for `Cc1c(-c2[nH]c3sc(C(=O)N4CC(F)C4)nc3c2C(C)C)cn2ncnc2c1C` [Example 379, (5-(7,8-dimethyl-[1,2,4]triazolo[1,5-a]pyridin-6-yl)-6-isopropyl-4H-pyrrolo[3,2-d]thiazol-2-yl) (3-fluoroazetidin-1-yl)methanone] were, in that order, 28000 nM, 55.7 nM and 22.9 nM.
The like results for `Cc1c(-c2[nH]c3sc(C(=O)N4CCN(C(C)C)CC4)nc3c2C(C)C)cn2ncnc2c1C` [Example 380, (5-(7,8-dimethyl-[1,2,4]triazolo[1,5-a]pyridin-6-yl)-6-isopropyl-4H-pyrrolo[3,2-d]thiazol-2-yl)(4-isopropylpiperazin-1-yl)methanone] were, in that order, 6520 nM, 11.5 nM and 5.07 nM.
Regarding `Cc1c(-c2[nH]c3sc(C(=O)NCCC4CCN(C)CC4)nc3c2C(C)C)cn2ncnc2c1C` [Example 381, 5-(7,8-dimethyl-[1,2,4]triazolo[1,5-a]pyridin-6-yl)-6-isopropyl-N-(2-(1-methylpiperidin-4-yl)ethyl)-4H-pyrrolo[3,2-d]thiazole-2-carboxamide], the IC50 in assay [1] came out at 5880 nM; in assay [2], 11.1 nM; in assay [3] it was 9.06 nM.
The matching figures for `Cc1c(-c2[nH]c3sc(C(=O)N(C)CCN(C)C)nc3c2C(C)C)cn2ncnc2c1C` [Example 382, 5-(7,8-dimethyl-[1,2,4]triazolo[1,5-a]pyridin-6-yl)-N-(2-(dimethylamino)ethyl)-6-isopropyl-N-methyl-4H-pyrrolo[3,2-d]thiazole-2-carboxamide]: 9860 nM, 2.32 nM and 2.33 nM.
The like results for `Cc1c(-c2[nH]c3sc(C(=O)N4CC(N(C)C)C4)nc3c2C(C)C)cn2ncnc2c1C` [Example 383, (5-(7,8-dimethyl-[1,2,4]triazolo[1,5-a]pyridin-6-yl)-6-isopropyl-4H-pyrrolo[3,2-d]thiazol-2-yl) (3-(dimethylamino)azetidin-1-yl)methanone] were, in that order, 47000 nM, 17.5 nM and 3.51 nM.
The like results for `Cc1c(-c2[nH]c3sc(C(=O)NCC4CNCCO4)nc3c2C(C)C)cn2ncnc2c1C` (stereo not drawn) [Example 386, 5-(7,8-dimethyl-[1,2,4]triazolo[1,5-a]pyridin-6-yl)-6-isopropyl-N-(morpholin-2-ylmethyl)-4H-pyrrolo[3,2-d]thiazole-2-carboxamide] were, in that order, 9560 nM, 10.3 nM and 3.56 nM.
With `COc1cc(-c2[nH]c3sc(C(=O)NCCN4CCCC4)nc3c2C(C)C)cn2ncnc12` [Example 387, 6-isopropyl-5-(8-methoxy-[1,2,4]triazolo[1,5-a]pyridin-6-yl)-N-(2-(pyrrolidin-1-yl)ethyl)-4H-pyrrolo[3,2-d]thiazole-2-carboxamide], the IC50 in assay [1] was 11500 nM; in assay [2], 25.2 nM; in assay [3] it was 43.9 nM.
The matching figures for `COc1cc(-c2[nH]c3sc(C(=O)NCCN(C)C)nc3c2C(C)C)cn2ncnc12` [Example 388, N-(2-(dimethylamino)ethyl)-6-isopropyl-5-(8-methoxy-[1,2,4]triazolo[1,5-a]pyridin-6-yl)-4H-pyrrolo[3,2-d]thiazole-2-carboxamide]: 16100 nM, 22.4 nM and 37.4 nM.
The matching figures for `COc1cc(-c2[nH]c3sc(C(=O)NCC(F)F)nc3c2C(C)C)cn2ncnc12` [Example 389, N-(2,2-difluoroethyl)-6-isopropyl-5-(8-methoxy-[1,2,4]triazolo[1,5-a]pyridin-6-yl)-4H-pyrrolo[3,2-d]thiazole-2-carboxamide]: 37100 nM, 50.3 nM and 168 nM.
